Measurements from patent publication US20230159510A1, “NOVEL PRMT5 INHIBITORS” (AMGEN INC., priority 2020, published 2023).
Like-named read-outs stand apart in the source and are kept apart here.

How the values were obtained:
[1] = system: HCT116 MTAP null cells; experiment: HCT116 proliferation assay, MTAP null cells (CellTiter-Glo, 6 days); type: cell-based; details: 144 h, read-out: Protif_ HCT116-MTAP null IC50
Procedure, shortened: (§1)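 Seed cells in RPMI 1640 supplemented with 10% FBS and incubate overnight at 37° C under 5% CO2. Treat with serially diluted compound (threefold steps, 8 or 9 points, highest 1 or 10 µM) or DMSO alone, then quantify viability by luminescence.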

[2] = system: HCT116 WT cells; experiment: HCT116 proliferation assay, WT cells (CellTiter-Glo, 6 days); type: cell-based; details: Homo sapiens, HCT-116, 144 h, read-out: Prolif_HCT116-WT IC50
Procedure, shortened: as §1

[3] = target: PRMT5/MEP50 (Homo sapiens, UniProt O14744); experiment: MTase-Glo methyl transferase assay, Method A (Histone H4 peptide, 1 µM MTA, 24 h pre-incubation); type: biochemical; design: made in house; details: read-out: PRMT5 MTase Glo Ki (nM, Meth. A)
Procedure: Method A: The PRMT5 inhibitory activity of test compounds was determined using the MTase-Glo™ assay (Promega), which monitors the product (S-adenosyl homocysteine or SAH) of methyltransferase reactions. The PRMT5 MTase-Glo assay was conducted in a 384-well white ProxiPlate (PerkinElmer) in a total volume of 12 µL. The PRMT5 enzymatic reaction (in 4 µL) contained 10 nM PRMT5/MEP50 (produced at Amgen), 5 µM S-adenosyl methionine (SAM, Promega), 1 µM Histone H4 (1-21)-Lys(Biotin) (Anaspec), 1 µM 5′-methylthioadenosine (MTA, Sigma) and two-fold serially diluted compounds in a reaction buffer of 50 mM Tris (pH 8.0), 50 mM NaCl, 0.01% Tween 20, 0.01% BSA, and 1 mM DTT. Test compounds were pre-incubated with PRMT5/MEP50, SAM, and MTA for 24 hours before addition of Histone H4 peptide to initiate the PRMT5 reaction. The reaction was allowed to proceed for 2 hours at room temperature and was then terminated by addition of 2 µL of 3X MTase-Glo™ Reagent (Promega) and 150 µM EPZ015666 (Sigma). After a 30-minute incubation at room temperature, 6 µL of MTase-Glo™ Detection Solution (Promega) was added and the plate was incubated at room temperature for an additional 30 minutes. The light signal corresponding to the amount of SAH produced by the PRMT5 reaction was subsequently measured using an Envision multimode reader (PerkinElmer). IC50 and KI values were obtained by analyzing dose-response curves using Genedata Screener (Genedata).

PRMT5/MEP50, sequence (O14744 whole entry): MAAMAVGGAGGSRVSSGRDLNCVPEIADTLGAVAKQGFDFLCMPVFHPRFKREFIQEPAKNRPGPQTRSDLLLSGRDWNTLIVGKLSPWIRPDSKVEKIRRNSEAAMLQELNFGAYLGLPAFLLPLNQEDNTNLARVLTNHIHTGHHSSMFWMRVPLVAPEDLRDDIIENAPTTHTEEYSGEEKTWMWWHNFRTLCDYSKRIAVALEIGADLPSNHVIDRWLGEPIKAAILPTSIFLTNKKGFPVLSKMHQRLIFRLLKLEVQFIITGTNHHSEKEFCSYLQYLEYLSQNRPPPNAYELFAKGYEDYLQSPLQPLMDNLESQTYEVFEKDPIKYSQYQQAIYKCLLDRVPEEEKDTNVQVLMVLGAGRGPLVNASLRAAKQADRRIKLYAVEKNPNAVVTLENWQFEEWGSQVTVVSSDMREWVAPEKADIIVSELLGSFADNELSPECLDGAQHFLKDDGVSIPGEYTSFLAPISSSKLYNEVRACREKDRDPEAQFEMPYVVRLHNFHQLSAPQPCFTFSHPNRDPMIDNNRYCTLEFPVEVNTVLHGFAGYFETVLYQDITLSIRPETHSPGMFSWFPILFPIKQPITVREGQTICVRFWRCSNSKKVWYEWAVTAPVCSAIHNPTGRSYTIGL
PRMT5/MEP50, sequence (Q9BQA1 whole entry partner): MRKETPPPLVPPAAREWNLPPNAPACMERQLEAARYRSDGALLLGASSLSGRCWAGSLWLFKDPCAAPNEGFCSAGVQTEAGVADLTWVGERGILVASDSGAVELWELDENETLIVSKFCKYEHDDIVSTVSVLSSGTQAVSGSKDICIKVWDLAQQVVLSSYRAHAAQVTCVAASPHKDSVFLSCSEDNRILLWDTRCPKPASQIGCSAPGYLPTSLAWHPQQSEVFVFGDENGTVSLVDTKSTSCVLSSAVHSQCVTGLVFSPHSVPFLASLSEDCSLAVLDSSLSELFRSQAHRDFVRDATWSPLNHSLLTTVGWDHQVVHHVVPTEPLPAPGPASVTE

| Structure (SMILES) | IC50 ([1]; HCT116-MTAP null) | IC50 [2] | Ki [3] | IC50 [1] |
| --- | --- | --- | --- | --- |
| COc1ccc(CN(C(=O)c2ccc3nc(N)c(Br)cc3c2)[C@H](C)c2ncccn2)nn1 [Example 411, 2-amino-3-bromo-N-((6-methoxy-3-pyridazinyl)methyl)-N-((1R)-1-(2-pyrimidinyl)ethyl)-6-quinolinecarboxamide] | 182 nM | > 10000 nM | 0.22 nM |  |
| Cc1cc2cc(C(=O)N(Cc3ccc(Br)nn3)[C@@H]3CCCn4ncnc43)ccc2nc1N [Example 416, 2-amino-N-((6-bromo-3-pyridazinyl)methyl)-3-methyl-N-((8R)-5,6,7,8-tetrahydro[1,2,4]triazolo[1,5-a]pyridin-8-yl)-6-quinolinecarboxamide] | 262 nM | 6650 nM | 0.17 nM |  |
| Cc1cc2cc(C(=O)N(Cc3ccc(C(F)(F)F)cn3)[C@@H]3CCCC[C@H]3O)ccc2nc1N [Example 361, 2-amino-N-((1R,2R)-2-hydroxycyclohexyl)-3-methyl-N-((5-(trifluoromethyl)-2-pyridinyl)methyl)-6-quinolinecarboxamide] | 116 nM | 3220 nM | 2.1 nM |  |
| Cc1cc2cc(C(=O)N(Cc3ccc(C4CC4)cn3)CC(C)C)ccc2nc1N [Example 546, 2-amino-N-((5-cyclopropyl-2-pyridinyl)methyl)-3-methyl-N-(2-methylpropyl)-6-quinolinecarboxamide] | 262 nM | 4390 nM | 1.09 nM |  |
| CCOc1ccc(CN(C(=O)c2cnc3nc(N)c(Br)cc3c2)[C@H](C)c2ncccn2)nn1 [Example 382, 7-amino-6-bromo-N-((6-ethoxy-3-pyridazinyl)methyl)-N-((1R)-1-(2-pyrimidinyl)ethyl)-1,8-naphthyridine-3-carboxamide] | 278 nM | 9680 nM | 0.16 nM |  |
| Cc1cc2cc(C(=O)N(Cc3ccc(C(F)(F)F)cn3)Cc3ncccc3F)ccc2nc1N [Example 320, 2-amino-N-((3-fluoro-2-pyridinyl)methyl)-3-methyl-N-((5-(trifluoromethyl)-2-pyridinyl)methyl)-6-quinolinecarboxamide] |  | 3480 nM | 0.28 nM | 79 nM |
| Cc1cc2cc(C(=O)N(Cc3ccc(C(F)(F)F)cn3)[C@@H](C)c3ncn(C)n3)c(F)cc2nc1N (single isomer, unassigned) [Example 498] | 459 nM | 2030 nM | 2.43 nM |  |
| C[C@H](c1ncccc1F)N(Cc1ccc(C#N)cn1)C(=O)c1cnc2nc(N)c(Br)cc2c1 [Example 354, 7-amino-6-bromo-N-((5-cyano-2-pyridinyl)methyl)-N-((1R)-1-(3-fluoro-2-pyridinyl)ethyl)-1,8-naphthyridine-3-carboxamide] | 378 nM | > 10000 nM | 0.29 nM |  |
| Cc1cc2cc(C(=O)N(Cc3ccc(C(=O)N(C)C)cn3)[C@H](C)c3ncccc3F)ccc2nc1N [Example 561, 2-amino-N-((5-(dimethylcarbamoyl)-2-pyridinyl)methyl)-N-((1R)-1-(3-fluoro-2-pyridinyl)ethyl)-3-methyl-6-quinolinecarboxamide] | 895 nM | > 10000 nM | 0.3 nM |  |
| Cc1cc2cc(C(=O)N(Cc3ccc(C(F)(F)F)cn3)[C@@H]3CCOc4cccnc43)ccc2nc1N (single isomer, unassigned) [Example 456] | 39 nM | 816 nM | 0.3 nM |  |
| C[C@H](c1ncccc1F)N(Cc1ccc(C#N)cn1)C(=O)c1ccc2nc(N)c(Br)cc2c1 [Example 352, 2-amino-3-bromo-N-((5-cyano-2-pyridinyl)methyl)-N-((1R)-1-(3-fluoro-2-pyridinyl)ethyl)-6-quinolinecarboxamide] | 200 nM | 8090 nM | 0.14 nM |  |
| Cc1cc2cc(C(=O)N(Cc3ccc(S(C)(=O)=O)cn3)[C@H](C)c3ncccc3F)ccc2nc1N [Example 541, (R)-2-amino-N-((5-(methylsulfonyl)pyridin-2-yl)methyl)-N-(1-(3-fluoropyridin-2-yl)ethyl)-3-methylquinoline-6-carboxamide] | 198 nM | 4140 nM | 0.13 nM |  |
| Cc1cc2cc(C(=O)N(Cc3ccc(C(F)(F)F)cn3)CC(C)C)ncc2nc1N [Example 313, 2-amino-3-methyl-N-(2-methylpropyl)-N-((5-(trifluoromethyl)-2-pyridinyl)methyl)-1,7-naphthyridine-6-carboxamide] |  | > 10000 nM | 0.98 nM | 902 nM |
| C[C@H](c1ncccn1)N(Cc1ccc(C(F)(F)F)nn1)C(=O)c1ccc2nc(N)c(Cl)cc2c1 (single isomer, unassigned) [Example 445] | 549 nM | > 10000 nM | 0.53 nM |  |
| Cc1cc2cc(C(=O)N(Cc3ccc(OC(F)(F)F)cn3)[C@H](C)c3ncccn3)ccc2nc1N (single isomer, unassigned) [Example 487] | 26 nM | 730 nM | 0.04 nM |  |
| C[C@H](c1ncccn1)N(Cc1ccc(C(F)F)cn1)C(=O)c1cnc2nc(N)c(Cl)cc2c1 [Example 379] | 541 nM | > 10000 nM | 0.89 nM |  |
| Cc1cc2cc(C(=O)N(Cc3ccc(N4CC(F)(F)C4)cn3)[C@H](C)c3ncccn3)ccc2nc1N [Example 359, 2-amino-N-((5-(3,3-difluoro-1-azetidinyl)-2-pyridinyl)methyl)-3-methyl-N-((1R)-1-(2-pyrimidinyl)ethyl)-6-quinolinecarboxamide] | 208 nM | 4740 nM | < 0.1 nM |  |
| Cc1cc2cc(C(=O)N(Cc3ccc(F)cn3)Cc3ccc(C(F)(F)F)cn3)ccc2nc1N [Example 383, 2-amino-N-((5-fluoro-2-pyridinyl)methyl)-3-methyl-N-((5-(trifluoromethyl)-2-pyridinyl)methyl)-6-quinolinecarboxamide] | 434 nM | 5320 nM | 2.06 nM |  |
| Cc1cc2cc(C(=O)N(Cc3ccc(C(F)(F)F)cn3)Cc3ncc(F)cc3F)ccc2nc1N [Example 384, 2-amino-N-((3,5-difluoro-2-pyridinyl)methyl)-3-methyl-N-((5-(trifluoromethyl)-2-pyridinyl)methyl)-6-quinolinecarboxamide] | 177 nM | 5100 nM | 0.01 nM |  |
| Cc1cc2cc(C(=O)N(Cc3ccc(C(F)(F)F)cn3)[C@H](C)c3ncn(C)n3)ccc2nc1N (single isomer, unassigned) [Example 496] | 23 nM | 462 nM | 0.17 nM |  |
| Cc1cc2cc(C(=O)N(Cc3ccc(C(F)(F)F)cn3)Cc3cnccn3)ccc2nc1N [Example 336, 2-amino-3-methyl-N-(2-pyrazinylmethyl)-N-((5-(trifluoromethyl)-2-pyridinyl)methyl)-6-quinolinecarboxamide] | 400 nM | > 10000 nM | 0.47 nM |  |
| Cc1cc2cc(C(=O)N(Cc3cccnc3)Cc3ccc(C(F)(F)F)cn3)ccc2nc1N [Example 301, 2-amino-3-methyl-N-(3-pyridinylmethyl)-N-((5-(trifluoromethyl)-2-pyridinyl)methyl)-6-quinolinecarboxamide] | 872 nM | > 10000 nM | 1.22 nM |  |
| Cc1cc2cc(C(=O)N(Cc3ccc(C(F)(F)F)cn3)[C@@H]3CCCC(F)(F)[C@@H]3O)ccc2nc1N (single isomer, unassigned) [Example 466] | 269 nM | 4270 nM | 0.13 nM |  |
| Cc1cc2c(CN(Cc3ccc(C(F)(F)F)cn3)C(=O)c3ccc4nc(N)c(C)cc4c3)ccnc2[nH]1 [Example 506, 2-amino-3-methyl-N-((2-methyl-1H-pyrrolo[2,3-b]pyridin-4-yl)methyl)-N-((5-(trifluoromethyl)-2-pyridinyl)methyl)-6-quinolinecarboxamide] | 107 nM | 1160 nM | 0.01 nM |  |
| Cc1cc2cc(C(=O)N(Cc3ccc(C#N)cc3)[C@H](C)c3ncccn3)ccc2nc1N (single isomer, unassigned) [Example 475] | 268 nM | 4460 nM | 0.07 nM |  |
| C[C@H](c1ncccn1)N(Cc1ccc(Br)nn1)C(=O)c1ccc2nc(N)c(Cl)cc2c1 [Example 348, 2-amino-N-((6-bromo-3-pyridazinyl)methyl)-3-chloro-N-((1R)-1-(2-pyrimidinyl)ethyl)-6-quinolinecarboxamide] | 413 nM | > 10000 nM | 0.73 nM |  |
| Cc1cc2cc(C(=O)N(Cc3ccc(C(F)(F)F)nn3)[C@@H](c3ncccn3)C3CC3)ccc2nc1N (single isomer, unassigned) [Example 518] | 47 nM | 851 nM | 0.11 nM |  |
